The results in this text go back to patent US6960568B2, “Nucleosides and related processes, pharmaceutical compositions and methods” (Yale University, priority 2002, dated 2005).

Bounds are passed on as bounds.

For series [1], the system named is CCRF-CEM lymphoblastic leukemia cells. In words: Cytotoxicity against CCRF-CEM lymphoblastic leukemia cell line in vitro. It is filed as cell-based. Conditions: Homo sapiens, drug concentration required to inhibit cancer cell replication by 50%, tested up to 100 μM. Here is the method:
(§1) The synthesized compounds were evaluated in vitro for their cytotoxicity against the L1210 and P388 leukemias, the CCRF-CEM lymphoblastic leukemia, and the B16F10 melanoma cell lines and the results are shown in Table 2.

For the next series, the system named is P388 leukemia cells. In words: Cytotoxicity against P388 leukemia cell line in vitro. The conditions noted are these: Mus musculus, drug concentration required to inhibit cancer cell replication by 50%, tested up to 100 μM. It is filed as cell-based. Here is the method:
as §1

In series [2] the test system is L1210, P388, CCRF-CEM and B16F10 cells. In words: Cytotoxicity against the panel of neoplastic cell lines, summary in words. It is filed as cell-based. Conditions: concentrations up to 100 μM. Here is the method:
as §1

Another series has as its system B16F10 melanoma cells. In words: Cytotoxicity against B16F10 melanoma cell line in vitro. It is filed as cell-based. Conditions: Mus musculus, B16-F10; drug concentration required to inhibit cancer cell replication by 50%; tested up to 100 μM. Here is the method: as §1
The subject of the next series is L1210 leukemia cells. In words: Cytotoxicity against L1210 leukemia cell line in vitro. It is filed as cell-based. Conditions: Mus musculus, drug concentration required to inhibit cancer cell replication by 50%, tested up to 100 μM. Here is the method: as §1
Another series concerns hepatitis B virus (HBV). In words: Antiviral assay against hepatitis B virus in vitro. The conditions noted are these: maximum tested concentration 10 μM. It is filed as cell-based. Here is the method:
Antiviral assays were performed against hepatitis B virus (HBV) and human immunodeficiency virus (HIV-IIIB) in vitro as previously described. Lin, T. S.; Luo, M. Z.; Liu, M. C.; Pai, S. B.; Dutschman, G. E.; Cheng, Y. C., J. Med. Chem. 1994 37, 798-803.

As usually defined, the IC50 is the midpoint of a concentration-inhibition curve. Read a high IC50 as weaker potency in that assay. As for `Nc1nc(F)cc2c1ncn2[C@@H]1O[C@H](CO)[C@@H](O)[C@H]1O` [Compound 38, 4-Amino-6-fluoro-1-(β-D-ribofuranosyl)imidazo[4,5-c]pyridine], the IC50 in series [1] was determined as 100 µM; in the series on P388 leukemia cells, 50 µM; with B16F10 melanoma cells, 40 µM; in the series on L1210 leukemia cells, 35 µM. Also, in series [2], the “activity against these neoplastic cell lines (in words)” value (from here on “activity”) is “moderate to weak activities”.
Regarding `CNc1nc(F)cc2c1ncn2[C@@H]1O[C@H](CO)[C@@H](O)[C@H]1O` [Compound 39, 6-Fluoro-4-methylamino-1-(β-D-ribofuranosyl)imidazo[4,5-c]pyridine], the IC50 is 100 µM in series [1], more than 100 µM in the series with P388 leukemia cells, more than 100 µM with B16F10 melanoma cells and more than 100 µM with L1210 leukemia cells.
On to `Nc1nc(F)cc2c1ncn2[C@@H]1O[C@H](CO)[C@@H](O)[C@@H]1O` [Compound 43, 4-Amino-6-fluoro-1-β-D-arabinofuranosylimidazo[4,5-c]pyridine], for which the IC50 (in series [1]; with P388 leukemia cells; with B16F10 melanoma cells; in the series on L1210 leukemia cells) was more than 100 µM throughout.
For orientation: melting point means the temperature of the solid-liquid transition. As for `Nc1nc(F)cc2c1ncn2[C@H]1O[C@H](CO)[C@@H](O)[C@@H]1O` [Compound 44, 4-Amino-6-fluoro-1-α-D-arabinofuranosylimidazo[4,5-c]pyridine], the melting point is 198 °C (dec.). Moreover, the IC50 in series [1] was more than 100 µM. The same compound registered a half-inhibitory concentration (IC50) in the series with P388 leukemia cells of more than 100 µM. In the series on B16F10 melanoma cells, this compound registered an IC50 of more than 100 µM. This compound also registered an IC50 in the series with L1210 leukemia cells of more than 100 µM.
A word on the EC50: it is the concentration giving half of the maximal effect. Lower therefore signals a more potent agent. Consider `Nc1ncc(F)c2c1ncn2[C@@H]1O[C@H](CO)[C@@H](O)[C@H]1O` [Compound 51, 4-Amino-7-fluoro-1-(β-D-ribofuranosyl)imidazo[4,5-c]pyridine], for which the EC50 with hepatitis B virus (HBV) was 9.2 µM. Further, the IC50 in series [1] turned out to be 60 µM; with P388 leukemia cells it was 100 µM; in the series on B16F10 melanoma cells, 45 µM; in the series on L1210 leukemia cells, 15 µM. Further, the “activity” value in series [2] is given as “moderate to weak activities”.
On to `Nc1ncc(Cl)c2c1ncn2[C@@H]1O[C@H](CO)[C@@H](O)[C@H]1O` [Compound 52, 4-Amino-7-chloro-1-(β-D-ribofuranosyl)imidazo[4,5-c]pyridine], for which the melting point is 169 °C (dec.). In series [1], this compound gave an IC50 of more than 100 µM. This compound also yielded an IC50 in the series with P388 leukemia cells of more than 100 µM. Moreover, in the series on B16F10 melanoma cells, the IC50 was more than 100 µM. Further, the IC50 with L1210 leukemia cells is more than 100 µM.
With `Nc1nc(F)c(F)c2c1ncn2[C@@H]1O[C@H](CO)[C@@H](O)[C@H]1O` [Compound 57, 4-Amino-6,7-difluoro-1-(β-D-ribofuranosyl)imidazo[4,5-c]pyridine], the melting point was in the range of 163 to 165 °C. The compound also displayed an IC50 in series [1] of 40 µM. Further, the IC50 in the series on P388 leukemia cells was found to be 90 µM. Besides, in series [2], the “activity” value is on record as “moderate to weak activities”. In addition, in the series with B16F10 melanoma cells, the midpoint of inhibition, the IC50, lay at 100 µM. The same compound displayed an IC50 in the series with L1210 leukemia cells of 90 µM.
In turn, `Nc1nc(F)c(F)c2ncn([C@@H]3O[C@H](CO)[C@@H](O)[C@H]3O)c12` [Compound 58, 4-Amino-6,7-difluoro-3-(β-D-ribofuranosyl)imidazo[4,5-c]pyridine] came in with a melting point of 155 to 157 °C. This compound registered an EC50 in the series with hepatitis B virus (HBV) not below 10 µM. This compound had an IC50 in series [1] of more than 100 µM. The compound further gave an IC50 in the series on P388 leukemia cells of more than 100 µM. Besides, the IC50 in the series on B16F10 melanoma cells was more than 100 µM. The IC50 in the series on L1210 leukemia cells was more than 100 µM.
`Nc1nc(F)c(Cl)c2c1ncn2[C@@H]1O[C@H](CO)[C@@H](O)[C@H]1O` [Compound 59, 4-Amino-7-chloro-6-fluoro-1-(β-D-ribofuranosyl)imidazo[4,5-c]pyridine]: the melting point was in the range of 175 to 177 °C. In the series with hepatitis B virus (HBV), this compound returned an EC50 of 7.5 µM. Further, the half-inhibitory concentration (IC50) in series [1] came out at 60 µM. Besides, the IC50 in the series on P388 leukemia cells worked out at 90 µM. Besides, in series [2], the “activity” value is given as “moderate to weak activities”. This compound returned an IC50 with B16F10 melanoma cells of 100 µM. Also, in the series on L1210 leukemia cells, inhibition was half-maximal at 55 µM (IC50).
In the case of `Nc1nc(F)c(Cl)c2ncn([C@@H]3O[C@H](CO)[C@@H](O)[C@H]3O)c12` [Compound 60, 4-Amino-7-chloro-6-fluoro-3-(β-D-ribofuranosyl)imidazo[4,5-c]pyridine], the melting point fell in the range of 166 to 168 °C. In series [1], this compound gave an IC50 of more than 100 µM. Further, the IC50 with P388 leukemia cells is more than 100 µM. The compound also came in with an IC50 with B16F10 melanoma cells of more than 100 µM. In the series on L1210 leukemia cells, the IC50 was more than 100 µM.
Consider `Nc1[nH]c(=O)c2ncn([C@@H]3O[C@H](CO)[C@@H](O)[C@H]3O)c2c1Cl` [Compound 61, 6-Amino-7-chloro-1,5-dihydro-1-β-D-ribofuranosylimidazo[4,5-c]pyridin-4-one], for which the IC50 in series [1] came out at 30 µM; in the series with P388 leukemia cells it was 40 µM; with B16F10 melanoma cells, 35 µM; in the series with L1210 leukemia cells, 12 µM.
Consider `Nc1[nH]c(=O)c2ncn([C@@H]3O[C@H](CO)[C@@H](O)[C@H]3O)c2c1Br` [Compound 62, 6-Amino-7-bromo-1,5-dihydro-1-β-D-ribofuranosylimidazo[4,5-c]pyridin-4-one], for which the IC50 is 9 µM in series [1], 7 µM in the series with P388 leukemia cells, 7 µM with B16F10 melanoma cells and 3 µM in the series on L1210 leukemia cells.
